Data: ChEMBL document CHEMBL2150927, “5-Amino-oxazepine and 5-Amino-thiazepine Compounds as β-Secretase Antagonists and Methods of Use: Patent Highlight” (ACS Med Chem Lett, 2012)

Assays:
[1] = target: T1, Beta-secretase 1 (Homo sapiens, UniProt P56817); experiment: Inhibition of BACE1 expressed in HEK cells by cell-based assay; set-up: species or system HEK293
[2] = target: T1, Beta-secretase 1; experiment: Inhibition of BACE1 by FRET assay

T1 sequence (P56817 whole entry): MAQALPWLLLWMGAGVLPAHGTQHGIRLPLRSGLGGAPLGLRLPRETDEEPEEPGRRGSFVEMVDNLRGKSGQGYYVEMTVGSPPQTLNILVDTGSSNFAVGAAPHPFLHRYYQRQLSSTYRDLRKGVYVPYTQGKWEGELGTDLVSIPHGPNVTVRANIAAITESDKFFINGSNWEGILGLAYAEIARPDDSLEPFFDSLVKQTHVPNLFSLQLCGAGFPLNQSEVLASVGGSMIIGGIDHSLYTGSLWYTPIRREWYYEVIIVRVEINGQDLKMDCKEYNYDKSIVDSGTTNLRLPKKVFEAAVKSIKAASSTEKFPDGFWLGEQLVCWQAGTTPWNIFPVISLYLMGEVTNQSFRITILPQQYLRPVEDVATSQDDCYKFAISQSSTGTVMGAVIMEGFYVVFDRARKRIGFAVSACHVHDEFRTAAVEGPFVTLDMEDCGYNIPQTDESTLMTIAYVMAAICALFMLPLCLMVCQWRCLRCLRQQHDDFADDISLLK

| IC50 [1] [nM] | IC50 [2] [nM] | SMILES |
| --- | --- | --- |
| 7 | – | CC(C)(C)COc1cc(F)c2c(c1)[C@]1(COCCC(N)=N1)c1cc(-c3cccnc3F)ccc1O2 |
| 19 | 2 | NC1=N[C@@]2(CCOC1)c1cc(-c3cccnc3F)ccc1Oc1cnc(-c3ccc(F)c(F)c3)cc12 |
| 4 | 3 | NC1=N[C@@]2(CCOC1)c1cc(-c3cccnc3F)ccc1Oc1cnc(C3CCC(F)(F)C3)cc12 (stereo partly specified) |

| SMILES | IC50 [1] [nM] | IC50 [2] [nM] |
| --- | --- | --- |
| NC1=N[C@@]2(COCC1)c1cc(-c3cccnc3F)ccc1Oc1cnc(-c3ccnc(F)c3)cc12 | 1 | – |
